Patent publication US12655171B2, “Compounds for activating invariant natural killer T-cells and methods of use in eliminating inflammatory senescent cells” (Deciduous Therapeutics, Inc., priority 2021, dated 2026)

Assays:
[1] = tested on: primary human iNKT cells; experiment: Cytokine secretion of primary human iNKT cells co-cultured with drug-loaded BWSTIM cells; assay type: cell-based; conditions: for secretion of IFNγ / secretion of IL-4 / secretion of IL-6 / secretion of TNFα: GVK compounds vs absence of drug loading, α-GalCer vs GVK compounds, media collected 2 days later, FIG. 6C; for Primary iNKT cytokine release: IL-4, IL-6, IFNγ or TNFα
Procedure: In order to determine the activation profile induced by the compounds described herein, primary human iNKT cells were co-cultured with drug-loaded BWSTIM cells.
Day 0: PBMCs were isolated from human blood using the STEMCELL TECHNOLOGIES™ SepMate™ PBMC isolation system. iNKT cells were then selected using the Miltenyi NKT magnetic cell separation kit.
Day 2: DCD molecules or α-GalCer were both dissolved in DMSO at a 5 mg/mL stock solution. BWSTIM cells were fixed with mitomycin C, then loaded with 10 μg/mL of DCD molecules or α-GalCer for 4 hours at 37° C. at a concentration of 20 k cells/well in 200 μL of media in a u-bottom 96 well dish. Cells were co-cultured with 80 k 6B11+ selected primary human iNKT cells.
D4: Media was collected. Cytokines were measured using the Satorious 4Plex kit on the iQue3 cytometer.
GVK molecules or α-GalCer were both dissolved in DMSO at a 5 mg/mL stock solution. BWSTIM cells were loaded with compounds for 4 hours at 37° C. at a concentration of 20 k cells/well in 200 μL of media in a u-bottom 96 well dish. Cells were co-cultured with 100 k 6B11+ selected primary human iNKT cells. Media was collected 2 days later. Cytokines were measured using the Satorious 4Plex kit on the iQue3 cytometer.

[2] = tested on: human iTCR; experiment: In vitro activation of human iTCR through Jurkat reporter cell line (JiNKT, GFP under NFkB promoter) with drug-loaded BWSTIM cells; assay type: cell-based; conditions: 1 μg/mL; for GFP expression compared to the negative control: BWSTIM + JiNKT, 24 hours, FIG. 6A; for % GFP hiNKT binding (BWSTIM + JiNKT) 1 μg/mL, away from negative control: difference from negative control
Procedure: In order to determine the human iTCR activation potential induced by the compounds described herein, a jurkat cell line (JiNKT) was transfected with the human iTCR, and GFP under the NFkB promoter (cell line licensed from the Medical University of Vienna). A BWS147 cell line (BWSTIM) was also transfected with CD80 and CD1d to act as the antigen-presenting cell.
(§1) DCD molecules or α-GalCer were both dissolved in DMSO at a 5 mg/mL stock solution. BWSTIM cells were loaded with DCD molecules or α-GalCer at varying concentrations for 4 hours at 37° C. at a concentration of 20 k cells/well in 200 μL of media in a u-bottom 96 well dish. BWSTIM cells were washed 2× with media, then incubated with JiNKT cells at a concentration of 80 k cells/well in a u-bottom 96 well dish. Cells were co-cultured for 18 to 24 hours. The percentage of cells expressing high levels of GFP was measured through flow cytometry (after gating out the mCD45+ BWSTIM cells).
(§2) A jurkat cell line (JiNKT) was transfected with the human iTCR, and GFP under the NFkB promoter. A BWS147 cell line (BWSTIM) was also transfected with CD80 and CD1d to act as the antigen-presenting cell. A mouse iNKT hybridoma cell line (DN3.2) was also used as the iNKT. […]
as §1, with “GVK” for “DCD”, “compounds” for “DCD molecules or α-GalCer at varying concentrations”, “for” for “for 18 to”, “cytometry. 1 μg/mL of molecule GVK1a, GVK1b, GVK1c, or GVK1f was incubated with BWSTIM+JiNKT, and compared to α-GalCer.” for “cytometry (after gating out the mCD45+ BWSTIM cells).”

[3] = tested on: DN3.2; experiment: IL-2 Secretion (A20 + DN3.2); assay type: cell-based, mouse
[4] = tested on: mouse iTCR; experiment: In vitro activation of mouse iTCR, DN3.2 iNKT hybridoma with drug-loaded BWSTIM cells, IL-2 secretion; assay type: cell-based; conditions: 48 hours co-culture; FIG. 6B
Procedure: In order to determine the mouse iTCR activation potential induced by the compounds described herein, a mouse iNKT hybridoma cell line (DN3.2) from the La Jolla Institute for Allergy and Immunology were used as the iNKT. The BWS147 cell line (BWSTIM) with CD80 and CD1d acted as the antigen-presenting cell.
DCD molecules or α-GalCer were both dissolved in DMSO at a 5 mg/mL stock solution. BWSTIM cells were loaded with DCD molecules or α-GalCer of varying concentrations for 4 hours at 37° C. at a concentration of 20 k cells/well in 200 μL of media in a u-bottom 96 well dish. BWSTIM cells were washed 2× with media, then incubated with DN3.2 cells at a concentration of 80 k cells/well in a u-bottom 96 well dish. Cells were co-cultured for 48 hours. Media was collected and IL-2 was measured using the CisBio HTRF ELISA detection kit.
as §2
GVK molecules or α-GalCer were both dissolved in DMSO at a 5 mg/mL stock solution. BWSTIM cells were loaded with compounds for 4 hours at 37° C. at a concentration of 20 k cells/well in 200 μL of media in a u-bottom 96 well dish. BWSTIM cells were washed 2× with media, then incubated with DN3.2 cells at a concentration of 80 k cells/well in a u-bottom 96 well dish. Cells were co-cultured for 48 hours. Media was collected and IL-2 was measured using the CisBio HTRF ELISA detection kit.

[5] = tested on: human iTCR; experiment: % GFP hiNKT binding (recombinant protein CD1d + JiNKT); assay type: cell-based
[6] = tested on: senescent cells; experiment: Selective killing of senescent cells in vitro by activated human iNKT cells; assay type: cell-based
Procedure: Human iNKT cells were isolated and activated by incubation with α-GalCer. Activated iNKT cells were combined with samples containing healthy cells and senescent cells.

[7] = tested on: senescent cells in eWAT; experiment: Diet induced obesity (HFD) mouse model: senescent cells (C12FDG+) in eWAT; assay type: in vivo, C57BL/6J mice; conditions: HFD mice, four days post-injection; FIG. 5E
Procedure: (§3) Senescence is a feature of pre-adipocytes in obese individuals. To study the efficacy of the molecules described herein in decreasing senescence in fat, a diet induced obesity high fat diet (HFD) mouse model was used. 22-week-old HFD mice were injected with α-GalCer as a control and compared with the compounds of the present disclosure. The blood and spleen (or adipose tissue) were collected to measure iNKT activation and expansion, respectively. Cells in the eWAT (adipose tissue) were also collected and measured for % senescent cells. HFD mice were compared to non-HFD (normal diet) mice.
(§4) 22-week-old C57BL/6J mice on a chow or high-fat diet (HFD) were injected (I.P) with […] of α-GalCer, compound DCD-101 or compound DCD-154. Molecules were either dissolved in DMSO at a 5 mg/mL stock solution, or formulated into liposomes through thin-film rehydration, then extrusion through 200 nm filters. Liposome-based formulations were constructed using soy phosphatidylcholine, cholesterol, and DCD or α-GalCer in a 2:1:0.15 ratio. Two or twenty hours post-injection, blood was collected from the tail to measure the level of IFNγ using ELISA. Four days post-injection, mice were sacrificed to collect eWAT or spleen. Spleen was used to measure the number of iNKT cells, and eWAT was used to measure the number of iNKT cells and senescent cells using flow cytometry. iNKT cells were identified in the digested adipose tissue by gating live cells and mouse CD1d-α-GalCer tetramer+ cells. Senescent cells were measured withing the processes adipose tissue by selecting mCD45− cells, and C12FDG^HIGH cells.

[8] = tested on: iNKT cells; experiment: Diet induced obesity (HFD) mouse model: iNKT cell expansion in spleen or eWAT; assay type: in vivo, C57BL/6J mice; conditions: HFD mice, I.P. 2 g, four days post-injection
Procedure: as §3, §4

[9] = tested on: IFNγ; experiment: Diet induced obesity (HFD) mouse model: serum IFNγ (ELISA); assay type: in vivo, C57BL/6J mice
Procedure: as §3, §4

CCCCCCCCCCCCCCCCCCCCCCCCCC(=O)N[C@@H](CCC1OC(CO)C(O)C(O)C1O)[C@@H](O)[C@H](O)CCCCCCCCCCCCCC (stereo partly shown) [GVK1a]
secretion of IFNγ [1]: did not increase secretion
secretion of IL-4 [1]: did not increase secretion
secretion of IL-6 [1]: did not increase secretion
secretion of TNFα [1]: did not increase secretion
Primary iNKT cytokine release [1]: No activation
GFP expression compared to the negative control [2]: did not induce GFP expression higher than the negative control
% GFP hiNKT binding (BWSTIM + JiNKT) 1 μg/mL, away from negative control [2]: % <5 away from
IL-2 Secretion (A20 + DN3.2) [3]: Activated

CCCCCCCCCCCCCCCCCCCCCCCCCC(=O)N[C@@H](CCC1OC(CO)C(O)C(O)C1O)[C@@H](O)[C@H](O)CCCCCCCCCCCCCC (stereo partly shown) [GVK1b]
secretion of IFNγ [1]: did not increase secretion
secretion of IL-4 [1]: did not increase secretion
secretion of IL-6 [1]: did not increase secretion
secretion of TNFα [1]: did not increase secretion
Primary iNKT cytokine release [1]: No activation
GFP expression compared to the negative control [2]: did not induce GFP expression higher than the negative control
% GFP hiNKT binding (BWSTIM + JiNKT) 1 μg/mL, away from negative control [2]: % <5 away from
expression of IL-2 in the DN3.2 cell line when loaded on BWSTIM CD1d [4]: did not induce expression of IL-2
IL-2 Secretion (A20 + DN3.2) [3]: Does not

CCCCCCCCCCCCCCCCCCCCCCCCCC(=O)N[C@@H](CO[C@H]1O[C@H](CO)[C@H](O)[C@H](O)[C@H]1O)[C@H](O)[C@H](O)CCCCCCCCCCCCCC [α-GalCer, Alpha-galactosylceramide, reference compound]
% GFP hiNKT binding (recombinant protein CD1d + JiNKT) [5]: % 30
secretion of IFNγ [1]: significantly greater increase in the secretion
secretion of IL-4 [1]: significantly greater increase in the secretion
secretion of IL-6 [1]: significantly greater increase in the secretion
secretion of TNFα [1]: significantly greater increase in the secretion
killing of senescent vs non-senescent cells by iNKT cells activated by the compound ([6]; evaluated after 8 hours and 18 hours, FIG. 7B): senescent cells were selectively killed whereas non-senescent cells were maintained
presence of senescent vs non-senescent cells on incubation with iNKT cells activated by the compound ([6]; over a period of 18 hours, FIG. 7A): reduction in the presence of senescent cells over time whereas non-senescent cells were maintained
accumulation of senescent cells (C12FDG+) in eWAT [7]: effective in decreasing the accumulation of senescent cells in eWAT
GFP expression compared to the negative control [2]: induction remained high
% GFP hiNKT binding (BWSTIM + JiNKT) 1 μg/mL ([2]; % GFP): % 40-70
expansion of immune (iNKT) cells in HFD mouse spleen ([8]; FIG. 5A): caused expansion of immune cells in HFD mouse spleen
expansion of immune (iNKT) cells in HFD mouse eWAT ([8]; percent iNKT cells of live cells, FIG. 5B): caused expansion of immune cells in HFD mouse eWAT
levels of IFNγ in the HFD model ([9]; twenty hours post injection, FIG. 5D): significantly increased levels of IFNγ
levels of serum IFNγ in the HFD model ([9]; two hours post injection, FIG. 5C): significantly increased levels of IFNγ
